The record followed here is ChEMBL document CHEMBL5625247, “Tetrahydro-β-carboline derivatives as potent histone deacetylase 6 inhibitors with broad-spectrum antiproliferative activity” (Eur J Med Chem, 2023).

The source made the active and inactive calls. No cut-off for these calls is given here.

The target in series [1] is Polyamine deacetylase HDAC10 (Homo sapiens, UniProt Q969S8). Kind of series: Inhibition of HDAC10 (unknown origin) TR-FRET assay. Also noted: species or system Sf9.
Series [2] concerns the target T1, Histone deacetylase 1 (Homo sapiens, UniProt Q13547). The series is described as follows: Inhibition of HDAC1 (unknown origin) expressed in baculovirus infected in Sf9 cells using RHKKAc as substrate preincubated for 5 to 10 mins followed by substrate addition measured after 2 hrs by fluorescence based assay.
In another series the target is Histone deacetylase 4 (Homo sapiens, UniProt P56524). The series is described as follows: Inhibition of HDAC4 (unknown origin) expressed in baculovirus infected in Sf9 cells using RHKKAc as substrate preincubated for 5 to 10 mins followed by substrate addition measured after 2 hrs by fluorescence based assay.
For another series, the target named is Histone deacetylase 5 (Homo sapiens, UniProt Q9UQL6). Kind of series: Inhibition of HDAC5 (unknown origin) expressed in baculovirus infected in Sf9 cells using RHKKAc as substrate preincubated for 5 to 10 mins followed by substrate addition measured after 2 hrs by fluorescence based assay.
Series [3] concerns the target T2, Protein deacetylase HDAC6 (Homo sapiens) (UniProt Q9UBN7).
T2 sequence (whole entry): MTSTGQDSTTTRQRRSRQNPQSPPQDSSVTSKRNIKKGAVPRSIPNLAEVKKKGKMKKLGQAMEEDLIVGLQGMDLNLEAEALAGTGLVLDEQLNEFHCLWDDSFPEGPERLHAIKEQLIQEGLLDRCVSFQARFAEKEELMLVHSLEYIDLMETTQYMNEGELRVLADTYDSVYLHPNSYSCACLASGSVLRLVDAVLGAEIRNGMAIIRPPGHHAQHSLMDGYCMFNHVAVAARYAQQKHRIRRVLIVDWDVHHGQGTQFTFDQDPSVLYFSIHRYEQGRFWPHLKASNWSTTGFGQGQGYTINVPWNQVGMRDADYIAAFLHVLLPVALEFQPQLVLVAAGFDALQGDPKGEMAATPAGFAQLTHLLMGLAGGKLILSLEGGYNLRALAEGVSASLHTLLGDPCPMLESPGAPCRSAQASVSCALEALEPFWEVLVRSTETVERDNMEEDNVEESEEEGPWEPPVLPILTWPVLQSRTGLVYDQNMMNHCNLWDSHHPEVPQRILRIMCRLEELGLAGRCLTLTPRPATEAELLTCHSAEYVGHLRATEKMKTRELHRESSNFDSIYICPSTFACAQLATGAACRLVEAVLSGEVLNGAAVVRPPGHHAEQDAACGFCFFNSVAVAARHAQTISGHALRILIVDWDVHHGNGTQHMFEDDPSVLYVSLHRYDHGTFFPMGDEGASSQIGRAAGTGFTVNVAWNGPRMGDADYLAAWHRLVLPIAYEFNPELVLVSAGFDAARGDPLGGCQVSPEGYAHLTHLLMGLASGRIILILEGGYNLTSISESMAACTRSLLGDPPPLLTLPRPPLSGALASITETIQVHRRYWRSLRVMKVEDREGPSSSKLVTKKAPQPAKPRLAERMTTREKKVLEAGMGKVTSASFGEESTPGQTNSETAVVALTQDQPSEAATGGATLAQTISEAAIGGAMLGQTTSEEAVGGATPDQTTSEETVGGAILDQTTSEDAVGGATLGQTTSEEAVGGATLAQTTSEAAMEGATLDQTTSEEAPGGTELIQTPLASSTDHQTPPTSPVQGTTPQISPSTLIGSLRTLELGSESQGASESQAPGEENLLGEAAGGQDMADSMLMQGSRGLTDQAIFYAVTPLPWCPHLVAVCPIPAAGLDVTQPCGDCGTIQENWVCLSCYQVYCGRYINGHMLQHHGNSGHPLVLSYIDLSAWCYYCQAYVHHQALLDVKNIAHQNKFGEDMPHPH
Kind of series: Inhibition of HDAC6 in human RPMI-8226 cells assessed as increase in alpha-tubulin acetylation at 1 to 10 uM incubated for 24 hrs by Western blot analysis. Conditions: dose 1-10 µM. The class given is cell-based.

In series [4] the target is T2, Protein deacetylase HDAC6 (Homo sapiens). Kind of series: Inhibition of HDAC6 in human RPMI-8226 cells assessed as increase in histone H3 acetylation at 1 to 10 uM incubated for 24 hrs by Western blot analysis. The class given is cell-based. The following applies: dose 1-10 µM.
Another series concerns CCRF-CEM. The series is described as follows: Antiproliferative activity against human CCRF-CEM cells assessed as cell growth inhibition incubated for 72 hrs by alamar blue dye based assay. Format: functional.
The test system of a further series is HOP-62. Kind of series: Antiproliferative activity against human HOP-62 cells assessed as cell growth inhibition incubated for 72 hrs by alamar blue dye based assay. The class given is functional.
Another series deals with HOP-92. The series is described as follows: Antiproliferative activity against human HOP-92 cells assessed as cell growth inhibition incubated for 72 hrs by alamar blue dye based assay. The class given is functional.
In another series the test system is NCI-H23. The series is described as follows: Antiproliferative activity against human NCI-H23 cells assessed as cell growth inhibition incubated for 72 hrs by alamar blue dye based assay. Format: functional.
The subject of the next series is SNB-75. The series is described as follows: Antiproliferative activity against human SNB-75 cells assessed as cell growth inhibition incubated for 72 hrs by alamar blue dye based assay. The class given is functional.
Another series deals with U-251. Kind of series: Antiproliferative activity against human U-251 cells assessed as cell growth inhibition incubated for 72 hrs by alamar blue dye based assay. Format: functional.
A further series relates to MDA-MB-435. The series is described as follows: Antiproliferative activity against human MDA-MB-435 cells assessed as cell growth inhibition incubated for 72 hrs by alamar blue dye based assay. The class given is functional.
Another series has as its system UACC-62. The series is described as follows: Antiproliferative activity against human UACC-62 cells assessed as cell growth inhibition incubated for 72 hrs by alamar blue dye based assay. Format: functional.
In another series the test system is OVCAR-5. Kind of series: Antiproliferative activity against human OVCAR-5 cells assessed as cell growth inhibition incubated for 72 hrs by alamar blue dye based assay. Format: functional.
Another series relates to OVCAR-8. The series is described as follows: Antiproliferative activity against human OVCAR-8 cells assessed as cell growth inhibition incubated for 72 hrs by alamar blue dye based assay. Format: functional.
A further series concerns 786-0. The series is described as follows: Antiproliferative activity against human 786-0 cells assessed as cell growth inhibition incubated for 72 hrs by alamar blue dye based assay. Format: functional.
The subject of another series is UO-31. The series is described as follows: Antiproliferative activity against human UO-31 cells assessed as cell growth inhibition incubated for 72 hrs by alamar blue dye based assay. Format: functional.
Another series deals with PC-3. The series is described as follows: Antiproliferative activity against human PC-3 cells assessed as cell growth inhibition incubated for 72 hrs by alamar blue dye based assay. The class given is functional.
The nature of series [5]: Clearance in Sprague-Dawley rat at 0.2 mg/kg, iv by LC-MS/MS analysis. Format: ADME, organism-based. Conditions: in vivo.
Series [6] can be described thus: AUC (0 to infinity) in Sprague-Dawley rat at 0.2 mg/kg, iv by LC-MS/MS analysis. Format: ADME, organism-based. Conditions: in vivo.
The nature of series [7]: AUC (0 to last) in Sprague-Dawley rat at 0.2 mg/kg, iv by LC-MS/MS analysis. Format: ADME, organism-based. Conditions: in vivo.
Series [8] is described as follows: Half life in Sprague-Dawley rat at 0.2 mg/kg, iv by LC-MS/MS analysis. The class given is ADME, organism-based. The following applies: in vivo.
Series [9] in a line: AUC (0 to infinity) in Sprague-Dawley rat at 3 mg/kg, po by LC-MS/MS analysis. The following applies: in vivo. The class given is ADME, organism-based.
The nature of series [10]: Half life in Sprague-Dawley rat at 3 mg/kg, po by LC-MS/MS analysis. Format: ADME, organism-based. Conditions: in vivo.
Series [11] deals with T1, Histone deacetylase 1. The series is described as follows: Inhibition of HDAC1 (unknown origin) expressed in baculovirus infected in Sf9 cells using RHKKAc as substrate at 500 nM preincubated for 5 to 10 mins followed by substrate addition measured after 2 hrs by fluorescence based assay relative to control. The following applies: time 5-130 min.

T1 sequence (Q13547 whole entry): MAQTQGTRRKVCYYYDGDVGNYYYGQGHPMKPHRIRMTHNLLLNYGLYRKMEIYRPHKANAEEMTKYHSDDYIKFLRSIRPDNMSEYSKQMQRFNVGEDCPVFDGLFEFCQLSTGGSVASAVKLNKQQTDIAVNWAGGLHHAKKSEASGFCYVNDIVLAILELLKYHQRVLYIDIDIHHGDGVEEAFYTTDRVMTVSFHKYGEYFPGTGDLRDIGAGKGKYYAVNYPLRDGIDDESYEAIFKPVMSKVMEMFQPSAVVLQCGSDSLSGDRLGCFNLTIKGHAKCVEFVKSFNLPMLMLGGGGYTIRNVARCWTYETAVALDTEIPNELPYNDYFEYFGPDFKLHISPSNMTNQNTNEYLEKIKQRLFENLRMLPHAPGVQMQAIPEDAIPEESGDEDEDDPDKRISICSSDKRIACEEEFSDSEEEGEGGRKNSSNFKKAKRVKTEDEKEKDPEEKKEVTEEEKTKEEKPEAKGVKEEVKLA
Chain of Polyamine deacetylase HDAC10 (Q969S8 whole entry): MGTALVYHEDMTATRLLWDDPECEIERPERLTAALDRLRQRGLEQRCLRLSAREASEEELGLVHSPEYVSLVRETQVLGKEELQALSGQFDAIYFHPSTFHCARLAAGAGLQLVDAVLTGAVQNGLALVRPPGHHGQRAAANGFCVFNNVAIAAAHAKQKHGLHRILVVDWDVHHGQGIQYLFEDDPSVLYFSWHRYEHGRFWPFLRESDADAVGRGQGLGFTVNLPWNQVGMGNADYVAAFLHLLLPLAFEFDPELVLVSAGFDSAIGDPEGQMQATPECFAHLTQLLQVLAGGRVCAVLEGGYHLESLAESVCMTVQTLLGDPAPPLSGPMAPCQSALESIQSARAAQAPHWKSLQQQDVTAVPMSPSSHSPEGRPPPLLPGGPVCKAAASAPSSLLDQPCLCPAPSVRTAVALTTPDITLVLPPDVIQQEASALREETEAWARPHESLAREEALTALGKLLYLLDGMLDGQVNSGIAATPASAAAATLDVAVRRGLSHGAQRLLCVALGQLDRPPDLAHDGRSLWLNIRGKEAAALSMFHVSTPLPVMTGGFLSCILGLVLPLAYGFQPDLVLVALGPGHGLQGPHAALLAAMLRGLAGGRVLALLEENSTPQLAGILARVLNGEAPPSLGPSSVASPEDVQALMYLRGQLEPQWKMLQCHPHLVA
Chain of Histone deacetylase 5 (Q9UQL6 whole entry): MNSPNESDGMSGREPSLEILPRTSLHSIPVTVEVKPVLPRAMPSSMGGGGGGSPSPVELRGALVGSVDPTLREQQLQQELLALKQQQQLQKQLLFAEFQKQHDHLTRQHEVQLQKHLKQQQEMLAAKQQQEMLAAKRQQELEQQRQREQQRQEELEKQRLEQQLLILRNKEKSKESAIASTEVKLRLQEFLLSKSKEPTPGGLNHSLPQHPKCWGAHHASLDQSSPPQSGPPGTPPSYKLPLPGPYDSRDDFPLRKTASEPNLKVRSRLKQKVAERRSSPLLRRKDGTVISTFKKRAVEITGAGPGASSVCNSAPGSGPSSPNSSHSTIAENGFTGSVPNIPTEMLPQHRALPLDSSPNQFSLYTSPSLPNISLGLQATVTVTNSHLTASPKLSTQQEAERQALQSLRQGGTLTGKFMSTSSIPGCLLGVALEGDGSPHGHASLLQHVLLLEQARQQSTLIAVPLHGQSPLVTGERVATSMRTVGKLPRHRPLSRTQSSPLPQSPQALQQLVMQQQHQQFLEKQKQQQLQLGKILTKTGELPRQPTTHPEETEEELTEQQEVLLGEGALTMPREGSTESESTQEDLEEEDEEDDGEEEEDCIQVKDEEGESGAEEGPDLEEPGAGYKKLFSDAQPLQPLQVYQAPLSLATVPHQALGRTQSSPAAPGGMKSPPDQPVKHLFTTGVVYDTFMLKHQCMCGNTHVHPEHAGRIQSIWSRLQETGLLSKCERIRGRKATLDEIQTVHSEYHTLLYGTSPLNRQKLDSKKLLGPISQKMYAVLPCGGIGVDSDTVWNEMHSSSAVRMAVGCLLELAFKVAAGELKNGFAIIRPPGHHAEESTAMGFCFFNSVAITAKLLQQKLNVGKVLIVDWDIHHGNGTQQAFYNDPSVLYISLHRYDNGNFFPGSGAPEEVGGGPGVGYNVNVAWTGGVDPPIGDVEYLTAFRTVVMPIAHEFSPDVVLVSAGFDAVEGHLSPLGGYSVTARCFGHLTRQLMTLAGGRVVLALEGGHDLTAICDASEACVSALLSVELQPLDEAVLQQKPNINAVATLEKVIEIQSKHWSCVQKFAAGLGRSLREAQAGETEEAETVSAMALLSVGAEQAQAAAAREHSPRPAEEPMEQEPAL
Chain of Histone deacetylase 4 (P56524 whole entry): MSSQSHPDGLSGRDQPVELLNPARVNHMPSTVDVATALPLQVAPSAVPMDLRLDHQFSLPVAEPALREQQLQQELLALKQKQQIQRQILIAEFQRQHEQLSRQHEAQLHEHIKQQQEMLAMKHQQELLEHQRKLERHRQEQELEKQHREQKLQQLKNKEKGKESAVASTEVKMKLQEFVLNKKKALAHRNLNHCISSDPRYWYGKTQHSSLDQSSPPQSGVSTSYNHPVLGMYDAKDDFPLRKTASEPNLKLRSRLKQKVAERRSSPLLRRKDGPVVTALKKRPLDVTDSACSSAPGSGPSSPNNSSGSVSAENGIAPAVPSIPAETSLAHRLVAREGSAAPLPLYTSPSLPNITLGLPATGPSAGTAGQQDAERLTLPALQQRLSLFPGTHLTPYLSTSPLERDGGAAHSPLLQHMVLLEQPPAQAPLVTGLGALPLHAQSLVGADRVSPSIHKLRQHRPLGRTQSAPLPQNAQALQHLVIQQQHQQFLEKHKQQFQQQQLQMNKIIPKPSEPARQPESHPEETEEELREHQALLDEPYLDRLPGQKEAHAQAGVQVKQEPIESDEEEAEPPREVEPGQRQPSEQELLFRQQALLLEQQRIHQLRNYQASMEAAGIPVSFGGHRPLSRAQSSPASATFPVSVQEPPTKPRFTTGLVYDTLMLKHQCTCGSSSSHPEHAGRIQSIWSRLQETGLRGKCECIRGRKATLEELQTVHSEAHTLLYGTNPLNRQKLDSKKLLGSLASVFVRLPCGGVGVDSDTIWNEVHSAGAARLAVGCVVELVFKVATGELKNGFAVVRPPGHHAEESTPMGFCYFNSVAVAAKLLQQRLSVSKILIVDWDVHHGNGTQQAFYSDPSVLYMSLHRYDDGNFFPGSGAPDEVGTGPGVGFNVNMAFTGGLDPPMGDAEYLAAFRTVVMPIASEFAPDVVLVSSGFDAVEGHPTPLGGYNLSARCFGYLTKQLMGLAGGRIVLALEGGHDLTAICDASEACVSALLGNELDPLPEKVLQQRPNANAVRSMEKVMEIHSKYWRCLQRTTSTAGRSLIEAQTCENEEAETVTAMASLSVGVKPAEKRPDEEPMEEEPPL

On to `O=C(NO)c1ccc(CNC(=O)[C@H]2Cc3c([nH]c4ccccc34)[C@H](c3ccc(Cl)cc3)N2)cc1`, for which the IC50 in [1] was 496 nM; against Histone deacetylase 1 [2] it was 61.6 nM; against Histone deacetylase 4, above 50000 nM; against Histone deacetylase 5 it was above 50000 nM. Moreover, the inhibition result in series [3] and in series [4] was “Active” in each case. The GI50 with CCRF-CEM came to 617 nM; in the series on HOP-62 it was 1270 nM; with HOP-92, 930 nM; with NCI-H23, 1330 nM; in the series on SNB-75, 2260 nM; with U-251, 1210 nM. Besides, the GI50 with MDA-MB-435 is 959 nM; in the series with UACC-62, 538 nM; in the series on OVCAR-5 it was 456 nM; in the series on OVCAR-8, 942 nM; with 786-0 it was 3710 nM; in the series on UO-31, 2640 nM. Further, the GI50 with PC-3 is 1760 nM. The compound further gave a clearance in series [5] of 4.4 mL/min/kg. Further, the AUC(0-inf) in series [6] is 1.52 µM·h; in series [9], 9.71 µM·h. The compound also showed an AUC(0-t) in [7] of 1.46 µM·h. For the same compound, the half-life in series [8] is 3.38 h; in [10], 3.41 h.
At Histone deacetylase 1 [11], `COc1ccc(CN2[C@@H](C(=O)NCc3ccc(C(=O)NO)cc3)Cc3c([nH]c4ccccc34)[C@@H]2C2CC2)cc1` showed an inhibition of 83.4%. For the same compound, half-maximal inhibition against Histone deacetylase 1 [2] (IC50) was put at 171 nM. In addition, the GI50 in the series on CCRF-CEM is 996 nM; in the series on HOP-62 it was 3480 nM; with HOP-92 it was 2620 nM; in the series with NCI-H23, 2750 nM; in the series with SNB-75, 1130 nM; in the series with U-251, 2660 nM. Also, the 50% growth inhibitory concentration (GI50) with MDA-MB-435 was 638 nM; in the series with UACC-62 it was 1550 nM; with OVCAR-5 it was 1870 nM; with OVCAR-8 it was 2560 nM; with 786-0, 3980 nM; in the series with UO-31, 3000 nM. The concentration for 50% growth inhibition (GI50) with PC-3 is 3120 nM.
